Assay results from the NIST ThermoML archive (doi:10.1016/j.jct.2012.02.011).
± gives the expanded uncertainty stated by the source.

Experiment: relative permittivity at various frequencies (dimensionless); xn = mol fraction of the nth substance listed
Details: 101.33 kPa, Liquid, Frequency=3 MHz, OH-301

CCCCOCCO [2-butoxyethan-1-ol] + O=[N+]([O-])c1ccccc1
relative permittivity
Details | 293.15 K | 298.15 K | 303.15 K | 308.15 K | 313.15 K
x2 = 0 | 9.78 ± 0.04 | 9.35 ± 0.04 | 8.88 ± 0.04 | 8.39 ± 0.04 | 7.91 ± 0.04
x2 = 0.05 | 12.73 ± 0.05 | 11.87 ± 0.05 | 11.04 ± 0.05 | 10.26 ± 0.05 | 9.54 ± 0.05
x2 = 0.0999 | 15.28 ± 0.05 | 14.32 ± 0.06 | 13.35 ± 0.06 | 12.37 ± 0.06 | 11.45 ± 0.05
x2 = 0.2003 | 19.6 ± 0.05 | 18.58 ± 0.06 | 17.59 ± 0.06 | 16.63 ± 0.06 | 15.76 ± 0.06
x2 = 0.3 | 23.44 ± 0.06 | 22.39 ± 0.06 | 21.39 ± 0.06 | 20.42 ± 0.05 | 19.59 ± 0.06
x2 = 0.4 | 27 ± 0.06 | 25.85 ± 0.06 | 24.78 ± 0.06 | 23.77 ± 0.06 | 22.92 ± 0.06
x2 = 0.5 | 30.19 ± 0.06 | 28.96 ± 0.06 | 27.82 ± 0.06 | 26.74 ± 0.06 | 25.84 ± 0.06
x2 = 0.6 | 32.88 ± 0.06 | 31.6 ± 0.06 | 30.44 ± 0.06 | 29.34 ± 0.06 | 28.49 ± 0.06
x2 = 0.7 | 34.91 ± 0.06 | 33.59 ± 0.06 | 32.5 ± 0.06 | 31.36 ± 0.06 | 30.53 ± 0.06
x2 = 0.7493 | 35.71 ± 0.07 | 34.34 ± 0.07 | 33.12 ± 0.06 | 32.06 ± 0.06 | 31.22 ± 0.05
x2 = 0.8 | 36.29 ± 0.07 | 34.85 ± 0.07 | 33.69 ± 0.06 | 32.47 ± 0.06 | 31.69 ± 0.05
x2 = 0.8506 | 36.65 ± 0.07 | 35.21 ± 0.07 | 33.91 ± 0.06 | 32.79 ± 0.06 | 31.92 ± 0.05
x2 = 0.9 | 36.77 ± 0.07 | 35.26 ± 0.07 | 33.96 ± 0.06 | 32.85 ± 0.06 | 32.04 ± 0.05
x2 = 0.9499 | 36.52 ± 0.07 | 35.09 ± 0.07 | 33.86 ± 0.06 | 32.84 ± 0.05 | 32.1 ± 0.05

O=[N+]([O-])c1ccccc1 [nitrobenzene] + COCCO
relative permittivity
Details | 293.15 K | 298.15 K | 303.15 K | 308.15 K | 313.15 K
x1 = 0.0505 | 19.13 ± 0.05 | 18.51 ± 0.05 | 17.93 ± 0.05 | 17.37 ± 0.05 | 16.82 ± 0.05
x1 = 0.1011 | 20.66 ± 0.05 | 19.96 ± 0.05 | 19.31 ± 0.05 | 18.66 ± 0.05 | 18.05 ± 0.05
x1 = 0.2003 | 23.41 ± 0.05 | 22.63 ± 0.05 | 21.89 ± 0.05 | 21.19 ± 0.05 | 20.56 ± 0.05
x1 = 0.3003 | 25.97 ± 0.05 | 25.12 ± 0.05 | 24.31 ± 0.05 | 23.59 ± 0.05 | 22.96 ± 0.05
x1 = 0.4002 | 28.41 ± 0.05 | 27.45 ± 0.05 | 26.59 ± 0.05 | 25.84 ± 0.05 | 25.16 ± 0.05
x1 = 0.4998 | 30.69 ± 0.06 | 29.62 ± 0.06 | 28.69 ± 0.05 | 27.94 ± 0.05 | 27.22 ± 0.05
x1 = 0.5997 | 32.75 ± 0.06 | 31.57 ± 0.06 | 30.58 ± 0.05 | 29.81 ± 0.05 | 29.09 ± 0.05
x1 = 0.7001 | 34.4 ± 0.06 | 33.23 ± 0.06 | 32.18 ± 0.06 | 31.31 ± 0.05 | 30.59 ± 0.05
x1 = 0.752 | 35.1 ± 0.06 | 33.87 ± 0.06 | 32.8 ± 0.06 | 31.91 ± 0.05 | 31.17 ± 0.05
x1 = 0.8004 | 35.62 ± 0.06 | 34.35 ± 0.06 | 33.24 ± 0.06 | 32.3 ± 0.05 | 31.54 ± 0.05
x1 = 0.8491 | 36.03 ± 0.06 | 34.74 ± 0.06 | 33.57 ± 0.06 | 32.61 ± 0.05 | 31.8 ± 0.05
x1 = 0.8974 | 36.21 ± 0.06 | 34.89 ± 0.06 | 33.72 ± 0.06 | 32.76 ± 0.05 | 32 ± 0.05
x1 = 0.9502 | 36.26 ± 0.06 | 34.94 ± 0.06 | 33.8 ± 0.06 | 32.88 ± 0.05 | 32.2 ± 0.05
x1 = 1 | 35.91 ± 0.06 | 34.78 ± 0.06 | 33.84 ± 0.05 | 33.13 ± 0.05 | 32.66 ± 0.04

CCCOCCO [2-propoxyethanol] + O=[N+]([O-])c1ccccc1
relative permittivity
Details | 293.15 K | 298.15 K | 303.15 K | 308.15 K | 313.15 K
x2 = 0 | 11.76 ± 0.04 | 11.5 ± 0.04 | 11.19 ± 0.04 | 10.91 ± 0.04 | 10.62 ± 0.04
x2 = 0.0497 | 14.29 ± 0.05 | 13.73 ± 0.05 | 13.13 ± 0.05 | 12.57 ± 0.05 | 12.02 ± 0.04
x2 = 0.1008 | 16.55 ± 0.05 | 15.87 ± 0.05 | 15.15 ± 0.05 | 14.52 ± 0.05 | 13.88 ± 0.05
x2 = 0.2 | 20.53 ± 0.05 | 19.71 ± 0.05 | 18.92 ± 0.05 | 18.2 ± 0.05 | 17.54 ± 0.05
x2 = 0.3004 | 24.06 ± 0.05 | 23.14 ± 0.05 | 22.27 ± 0.05 | 21.5 ± 0.05 | 20.81 ± 0.05
x2 = 0.4 | 27.18 ± 0.05 | 26.2 ± 0.06 | 25.26 ± 0.05 | 24.45 ± 0.05 | 23.7 ± 0.05
x2 = 0.5 | 30.06 ± 0.06 | 28.98 ± 0.06 | 27.97 ± 0.06 | 27.11 ± 0.05 | 26.32 ± 0.05
x2 = 0.6008 | 32.56 ± 0.06 | 31.43 ± 0.06 | 30.36 ± 0.06 | 29.47 ± 0.05 | 28.73 ± 0.05
x2 = 0.6997 | 34.55 ± 0.06 | 33.33 ± 0.06 | 32.27 ± 0.06 | 31.35 ± 0.05 | 30.61 ± 0.05
x2 = 0.7489 | 35.32 ± 0.06 | 34.05 ± 0.06 | 32.96 ± 0.06 | 32.01 ± 0.05 | 31.26 ± 0.05
x2 = 0.8 | 35.94 ± 0.07 | 34.57 ± 0.06 | 33.43 ± 0.06 | 32.48 ± 0.05 | 31.69 ± 0.05
x2 = 0.8499 | 36.33 ± 0.07 | 34.95 ± 0.07 | 33.75 ± 0.06 | 32.73 ± 0.05 | 31.91 ± 0.05
x2 = 0.9004 | 36.49 ± 0.06 | 35.1 ± 0.07 | 33.86 ± 0.06 | 32.83 ± 0.05 | 32.03 ± 0.05
x2 = 0.9488 | 36.3 ± 0.07 | 34.95 ± 0.06 | 33.8 ± 0.06 | 32.85 ± 0.05 | 32.14 ± 0.05

CCOCCO [2-ethoxyethan-1-ol] + O=[N+]([O-])c1ccccc1
relative permittivity
Details | 293.15 K | 298.15 K | 303.15 K | 308.15 K | 313.15 K
x2 = 0 | 14.25 ± 0.04 | 14.03 ± 0.04 | 13.76 ± 0.04 | 13.44 ± 0.04 | 13.07 ± 0.04
x2 = 0.0499 | 16.23 ± 0.05 | 15.75 ± 0.05 | 15.23 ± 0.05 | 14.71 ± 0.05 | 14.17 ± 0.04
x2 = 0.0997 | 18.22 ± 0.05 | 17.59 ± 0.05 | 16.95 ± 0.05 | 16.29 ± 0.05 | 15.64 ± 0.05
x2 = 0.2 | 21.92 ± 0.05 | 21.16 ± 0.05 | 20.41 ± 0.05 | 19.67 ± 0.05 | 18.98 ± 0.05
x2 = 0.3002 | 25.24 ± 0.05 | 24.4 ± 0.05 | 23.54 ± 0.05 | 22.77 ± 0.05 | 22 ± 0.05
x2 = 0.4001 | 28.2 ± 0.05 | 27.24 ± 0.06 | 26.32 ± 0.05 | 25.46 ± 0.05 | 24.66 ± 0.05
x2 = 0.5 | 30.85 ± 0.06 | 29.8 ± 0.06 | 28.81 ± 0.05 | 27.95 ± 0.05 | 27.13 ± 0.05
x2 = 0.6003 | 33.21 ± 0.06 | 32.07 ± 0.06 | 31.07 ± 0.06 | 30.15 ± 0.05 | 29.38 ± 0.06
x2 = 0.7 | 34.94 ± 0.06 | 33.75 ± 0.06 | 32.71 ± 0.06 | 31.81 ± 0.05 | 31.04 ± 0.05
x2 = 0.7491 | 35.66 ± 0.06 | 34.39 ± 0.06 | 33.29 ± 0.06 | 32.33 ± 0.05 | 31.52 ± 0.05
x2 = 0.7996 | 36.11 ± 0.07 | 34.77 ± 0.06 | 33.6 ± 0.06 | 32.6 ± 0.05 | 31.76 ± 0.05
x2 = 0.8504 | 36.37 ± 0.07 | 35 ± 0.07 | 33.73 ± 0.06 | 32.69 ± 0.06 | 31.81 ± 0.05
x2 = 0.9001 | 36.43 ± 0.07 | 34.99 ± 0.07 | 33.69 ± 0.06 | 32.64 ± 0.06 | 31.79 ± 0.05
x2 = 0.9456 | 36.26 ± 0.07 | 34.87 ± 0.07 | 33.66 ± 0.06 | 32.67 ± 0.05 | 31.9 ± 0.05
